Ends that are not written are not given here. Peptide text beside a SMILES is read from it. * marks the point of attachment. For = O=C*
Experiments:
FSMCs = format: cell-based, mouse
Description: In brief, FSMCs (2×10^6 m^−1) were preloaded with or without anti-DNP-IgE (0.3 g ml^−1) in RPMI with IL-3 for 15 hours. Cells were washed and loaded with Fluo-4AM (5 μM, Life Technologies) for 30 minutes. Cells were washed again and further incubated in Tyrode's buffer with or without EGTA (1 mM) for 30 minutes. DNP-HSA (30 ng ml^−1), Ionomycin (1 μM) or δ-toxin (30 μg ml^−1) were used to induce calcium flux in these cells.

[1] = system: MCs (FSMCs, BMCMCs, MC/9 cells); format: cell-based, mouse; details: in vitro; for effect on MC degranulation induced by δ-toxin: pre-treatment before δ-toxin stimulation
Description: Preparations of BMCMCs and fetal skin-derived mast cells (FSMCs) were previously described in Yamada, et al., J Invest Dermatol 121, 1425-1432 (2003). The purity of MCs was confirmed by surface expression of CD45 and CD117 (eBioscience).
Degranulation of MCs was assessed by β-hexosaminidase assay as previously described in Yamada, et al., J Invest Dermatol 121, 1425-1432, (2003). Briefly, MCs (2×10^6 m^−1) were preloaded with or without anti-DNP IgE (0.3 μg ml^−1) in RPMI with IL-3 for 15 hours. The cells were resuspended in Tyrode's buffer (Sigma) at 2×10^4 cells per 100 μl for FSMCs or 1×10^5 cells per 100 μl for BMCMCs and MC/9 cells, aliquoted in triplicate into a 96-well U-bottom plate and incubated with EGTA (1 mM, Sigma), LY294002 (100 μM, Sigma) and WRW4 (Trp-Arg-Trp-Trp-Trp-Trp-CONH2 (SEQ ID NO: […], American peptide) and Cyclosporine H (10 μM, Alexis Biochemicals) for 30 min, and then stimulated with DNP-HSA (30 ng ml^−1) TNP-HSA (30 nM) for 30 min, followed by exposure to Ionomycin (1 μM, Sigma) δ-toxin (indicated concentrations), PSMαs (indicated concentrations) or FPR2 ligands for 15 min. Results of various stimuli are given as a relative percentage, where freeze and thaw of total cell culture represents 100%.

MC/9 cells = test: Viability of MCs after stimulation with synthetic PSMs (LDH release); details: synthetic peptides
Description: (a) % LDH released from MC/9 cells stimulated by medium alone (Ctrl) and indicated concentrations (μg ml^−1) of PSMs for 15 or 60 minutes. […] Data represent means±s.d. of triplicate cultures. Data are representative of three independent experiments.
Because δ-toxin is highly related to PSMα2 and PSMα3, the viability of MCs after stimulation with synthetic PSMα2, PSMα3, or δ-toxin, was assessed.

[2] = system: primary mouse macrophages and keratinocytes; test: Cell toxicity by LDH assay in primary mouse macrophages and keratinocytes
Description: Cell toxicity of δ-toxin. BMCMCs, BMMφ (bone marrow derived macrophages), bone marrow neutrophils and primary keratinocytes isolated from mice were stimulated with PSMα (10 μg ml−1) or δ-toxin (10 or 100 μg ml−1) for indicated times. Cell toxicity was measured by LDH assay. Data represent means±s.d. of triplicate cultures. NS; not significant, ***P<0.001, one-way ANOVA with Tukey's post-hoc test for multiple comparisons. Data are representative of two independent experiments.

MC degranulation in vivo = test: Passive cutaneous anaphylaxis (PCA) assay, Evans blue leakage in ear skin; details: mice pretreated with WRW4, then S. aureus culture supernatant intradermally
Description: To assess whether δ-toxin induces MC degranulation in vivo, synthetic δ-toxin was injected into the skin of mouse ears and MC degranulation was monitored by the vascular leakage of Evan's blue dye into the extravascular space using the passive cutaneous anaphylaxis (PCA) assay.
Four to six weeks later, the mice were subjected to experimental PCA or epicutaneous S. aureus sensitization. […] PCA assay was performed as described, with minor modifications. […] After inoculation, 0.1 ml of 5 mg ml −1 Evans blue dye was injected intravenously. Extravasation of Evans blue dye was monitored for 30 minutes, and 4 mm of punched-out biopsies were incubated at 63° C. overnight in 200 μl formamide. Quantitative analysis of extracts was determined by measuring the absorbance at 600 nm.

| Compound | effect on MC degranulation induced by δ-toxin [1] | cell viability / cell death in MCs (MC/9 cells) | also measured |
| --- | --- | --- | --- |
| O=C(O)CN(CCOCCOCCN(CC(=O)O)CC(=O)O)CC(=O)O [EGTA, ethylene glycol tetraacetic acid] | blocked MC degranulation |  | effect on δ-toxin-triggered Ca2+ influx (FSMCs; EGTA 1 mM): abrogated |
| CCCCC[C@H](O)/C=C/C=C\C=C\C=C\[C@@H](O)[C@@H](O)CCCC(=O)O [Lipoxin A4] |  |  | induction of MC degranulation [1]: did not induce mouse MC degranulation |
| CC[C@H](C)[C@H](NC(=O)CNC(=O)[C@H](CCSC)NC=O)C(=O)N[C@H](C(=O)N[C@@H](C)C(=O)NCC(=O)N[C@H](C(=O)N[C@H](C(=O)N[C@@H](CCCCN)C(=O)N[C@H](C(=O)N[C@H](C(=O)N[C@@H](CCCCN)C(=O)N[C@@H](CO)C(=O)N[C@@H](CC(C)C)C(=O)N[C@H](C(=O)N[C@@H](CCC(=O)O)C(=O)N[C@@H](CCC(N)=O)C(=O)N[C@@H](Cc1ccccc1)C(=O)N[C@H](C(=O)NCC(=O)N[C@@H](CCCCN)C(=O)O)[C@@H](C)O)[C@@H](C)CC)[C@@H](C)CC)C(C)C)[C@@H](C)CC)[C@@H](C)CC)[C@@H](C)CC [PSMα2] (For-MGIIAGIIKVIKSLIEQFTGK-OH) |  | induced robust loss of cell viability | cell death [2]: triggered robust cell death |
| CC[C@H](C)[C@H](NC(=O)CNC(=O)[C@H](CCSC)NC=O)C(=O)N[C@H](C(=O)N[C@@H](C)C(=O)NCC(=O)N[C@H](C(=O)N[C@H](C(=O)N[C@@H](CCCCN)C(=O)N[C@@H](Cc1ccccc1)C(=O)N[C@H](C(=O)N[C@@H](CCCCN)C(=O)NCC(=O)N[C@@H](CC(C)C)C(=O)N[C@H](C(=O)N[C@@H](CCC(=O)O)C(=O)N[C@@H](CCCCN)C(=O)N[C@@H](Cc1ccccc1)C(=O)N[C@H](C(=O)NCC(=O)N[C@@H](CCCCN)C(=O)O)[C@@H](C)O)[C@@H](C)CC)[C@@H](C)CC)[C@@H](C)CC)[C@@H](C)CC)[C@@H](C)CC [PSMα3] |  | induced robust loss of cell viability |  |
| C[C@H](CCC(=O)O)C[C@H](C)C[C@H](C)C(=O)/C=C(\O)[C@H](C)C[C@H](C)C/C=C/[C@@H](C)[C@@H](O)[C@@H](C)[C@@H](O)C[C@@H]1CC[C@@](C)([C@H]2CC[C@@](C)([C@@H](C)O)O2)O1 [ionomycin] |  |  | induction of Ca2+ influx (FSMCs): induced rapid Ca 2+ influx |
| CC[C@H](C)[C@H](NC(=O)[C@H](Cc1c[nH]c2ccccc12)NC(=O)[C@H](CCCCN)NC(=O)[C@@H](NC(=O)[C@H](CC(C)C)NC(=O)[C@H](CC(=O)O)NC(=O)CNC(=O)[C@@H](NC(=O)[C@@H](NC(=O)[C@H](CO)NC(=O)[C@@H](NC(=O)[C@@H](NC(=O)[C@H](CC(=O)O)NC(=O)[C@H](CCC(N)=O)NC(=O)[C@H](C)NC(=O)[C@@H](N)CCSC)[C@@H](C)CC)[C@@H](C)CC)[C@@H](C)O)[C@@H](C)CC)C(C)C)C(=O)N[C@H](C(=O)N[C@@H](CC(=O)O)C(=O)N[C@H](C(=O)N[C@H](C(=O)N[C@@H](CC(N)=O)C(=O)N[C@@H](CCCCN)C(=O)N[C@@H](Cc1ccccc1)C(=O)N[C@H](C(=O)N[C@@H](CCCCN)C(=O)N[C@@H](CCCCN)C(=O)O)[C@@H](C)O)C(C)C)[C@@H](C)O)[C@@H](C)CC [δ-toxin] |  | did not induce detectable cell death |  |
| LESIFRSLLFRVM [MMK1, human FPR2 ligand] |  |  | induction of MC degranulation [1]: did not induce mouse MC degranulation |
| Trp-Arg-Trp-Trp-Trp-Trp-CONH2 (WRWWWW-NH2) [WRW4] | inhibited MC degranulation |  | effect on MC degranulation induced by δ-toxin in vivo (MC degranulation in vivo): inhibited MC degranulation |
| pertussis toxin | partially reduced |  |  |

— patent US12065485B2, “Treatment of staphylococcal disorders” (priority 2013, dated 2024)
